We go through 5 compounds from patent publication US20240115549A1, “TREATMENT OF MENTAL DISORDERS” (GH Research Ireland Limited, priority 2022, published 2024).

The structures appear in SMILES notation. Entries after “also recorded” stand apart in the source; their conditions may differ. A value given as a limit tells only on which side of the number the result lay.

In data set [1] the test system is human hepatocytes. Description: Metabolism of 5-MeO-DMT in human hepatocytes in suspension. It counts as in vitro ADME. The following applies: 5-MeO-DMT free base 10 μM incubated up to 120 minutes. Here is the method: All samples were stored at −80° C. (nominal) prior to analysis.
Appropriate blank and control samples were also analysed. […] (nominal).

The nature of data set [2]: LC-MS/MS of 5-MeO-DMT, bufotenine and 5-MIAA in breastmilk, serum and urine of a treated PPD patient; infant dose estimates.
In data set [3] the test system is human hepatocytes. Description: Metabolic stability in Hprel human hepatocyte co-culture. The following applies: for Half-life / In vitro intrinsic clearance: human hepatocytes, 1 μM; for Predicted hepatic extraction ratio: human, Hprel HumanPool human hepatocyte co-culture; for Disappearance with stromal cell controls: stromal cells. It counts as in vitro ADME. Here is the method: The incubations were performed using 1 and 10 μM initial concentrations and sampling at 0, 1, 2, 4, 8, 24, 48, and 72 hours (h) time points. The samples were analysed using UPLC/QE-orbitrap-MS.
The remaining LC/MS peak areas detected for test compounds after each incubation time point with Hprel co-culture assay, relative to corresponding 0 min incubation samples, are shown in the tables below.

In a further data set the test system is human plasma protein. Put plainly: Plasma binding of 5-MIAA. It counts as in vitro ADME. Here is the method: Binding to human plasma protein was determined. Reported are the unbound fraction (fu) for three replicates as well as the mean unbound fraction, the standard deviation and the mean % recovery (Table 8).
[4] abbreviates: 1.0 hrs after last dose, second PPD patient, inhaled 5-MeO-DMT, LC-MS/MS.
[5] abbreviates: 2.5 hrs after last dose, second PPD patient, inhaled 5-MeO-DMT, LC-MS/MS.
The mark [6] stands for this setting: 8.5 hrs after last dose, second PPD patient, inhaled 5-MeO-DMT, LC-MS/MS.
[7] abbreviates: 120.0 hrs after last dose, second PPD patient, inhaled 5-MeO-DMT, LC-MS/MS.
[8] abbreviates: timepoint −24.0 hrs (pre-dosing), second PPD patient, inhaled 5-MeO-DMT 6 mg then 12 mg, LC-MS/MS.
Setting [9] is: serum, 1.0 hrs after last dose, second PPD patient, inhaled 5-MeO-DMT, LC-MS/MS.
[10] abbreviates: urine, 2.5 hrs after last dose, second PPD patient, inhaled 5-MeO-DMT, LC-MS/MS.
[11] abbreviates: 5 kg infant, three feeds of 250 ml.

In the case of `CN(C)CCc1c[nH]c2ccc(O)cc12` [bufotenine], the “Relative Proportion of compounds identified” value (from here on “Relative Proportion”) in the data set on human hepatocytes [1] was 5%. In addition, the Detection in breastmilk entry in data set [2] (any time point) is “not detected; also recorded: absence”. Moreover, in data set [2] (any time point), the Detection in serum entry is reported as “not detected”. Further, the Breastmilk concentration entry in data set [2] (setting [4]) is on record as “BLQ”; in data set [2] (setting [5]), “BLQ”; in data set [2] (setting [6]), “BLQ”; in data set [2] (24.0 hrs after last dose, second PPD patient, inhaled 5-MeO-DMT, LC-MS/MS), “BLQ”; in data set [2] (setting [7]), “BLQ”; in data set [2] (setting [8]), “BLQ”. Further, the Serum concentration entry is given as “BLQ” in data set [2] (setting [9]); “BLQ” in data set [2] (serum, 2.5 hrs after last dose, second PPD patient, inhaled 5-MeO-DMT, LC-MS/MS); “BLQ” in data set [2] (serum, 24.0 hrs after last dose, second PPD patient, inhaled 5-MeO-DMT, LC-MS/MS); “BLQ” in data set [2] (serum, 120.0 hrs after last dose, second PPD patient, inhaled 5-MeO-DMT, LC-MS/MS); “BLQ” in data set [2] (serum, timepoint −24.0 hrs (pre-dosing), second PPD patient, inhaled 5-MeO-DMT 6 mg then 12 mg, LC-MS/MS). Also, the Urine concentration is 32.3 pg/mL in data set [2] (setting [10]); “BLQ” in data set [2] (urine, 8.5 hrs after last dose, second PPD patient, inhaled 5-MeO-DMT, LC-MS/MS); “BLQ” in data set [2] (urine, 24.0 hrs after last dose, second PPD patient, inhaled 5-MeO-DMT, LC-MS/MS); “BLQ” in data set [2] (urine, 120.0 hrs after last dose, second PPD patient, inhaled 5-MeO-DMT, LC-MS/MS); “BLQ” in data set [2] (urine, timepoint −24.0 hrs (pre-dosing), second PPD patient, inhaled 5-MeO-DMT 6 mg then 12 mg, LC-MS/MS).
Consider `COc1ccc2[nH]cc(CCO)c2c1` [5-methoxytryptophol, 5-Methoxyindole-3-ethanol], for which the “Relative LC/MS peak area” value was 79% in the data set on human hepatocytes [3] (1 μM Hepatocytes, 1 h); 57% in the data set on human hepatocytes [3] (1 μM Hepatocytes, 2 h); 33% with human hepatocytes [3] (1 μM Hepatocytes, 4 h); 10% in the data set on human hepatocytes [3] (1 μM Hepatocytes, 8 h); 0% with human hepatocytes [3] (1 μM Hepatocytes, 24 h); 0% in the data set with human hepatocytes [3] (1 μM Hepatocytes, 48 h). The “Relative LC/MS peak area” value with human hepatocytes [3] (1 μM Hepatocytes, 72 h) is recorded as 0%; in the data set with human hepatocytes [3] (1 μM Stromal cells, 4 h), 97%; in the data set with human hepatocytes [3] (1 μM Stromal cells, 8 h) it was 107%; in the data set with human hepatocytes [3] (1 μM Stromal cells, 24 h), 94%; in the data set with human hepatocytes [3] (1 μM Stromal cells, 48 h), 102%; with human hepatocytes [3] (1 μM Stromal cells, 72 h) it was 104%. In addition, the “Relative LC/MS peak area” value turned out to be 87% with human hepatocytes [3] (10 μM Hepatocytes, 1 h); 81% with human hepatocytes [3] (10 μM Hepatocytes, 2 h); 68% in the data set with human hepatocytes [3] (10 μM Hepatocytes, 4 h); 42% in the data set with human hepatocytes [3] (10 μM Hepatocytes, 8 h); 1% with human hepatocytes [3] (10 μM Hepatocytes, 24 h); 0% in the data set on human hepatocytes [3] (10 μM Hepatocytes, 48 h). Besides, the “Relative LC/MS peak area” value is on record as 0% with human hepatocytes [3] (10 μM Hepatocytes, 72 h); 99% in the data set on human hepatocytes [3] (10 μM Stromal cells, 4 h); 105% in the data set with human hepatocytes [3] (10 μM Stromal cells, 8 h); 86% in the data set with human hepatocytes [3] (10 μM Stromal cells, 24 h); 98% in the data set with human hepatocytes [3] (10 μM Stromal cells, 48 h); 104% with human hepatocytes [3] (10 μM Stromal cells, 72 h). The same compound yielded a Half-life with human hepatocytes [3] of 142 min. Moreover, the “In vitro intrinsic clearance” value in the data set with human hepatocytes [3] came to 16.2 μl/min/million cells. Besides, in the data set with human hepatocytes [3], the “Predicted hepatic extraction ratio” value is recorded as 67%. Moreover, in the data set on human hepatocytes [3] (in the presence of hepatocytes), the Metabolic turnover entry is on record as “high metabolic turnover”. For the same compound, the “Time to complete disappearance” value in the data set with human hepatocytes [3] (in the presence of hepatocytes) is recorded as ≤ 24 h. In the data set on human hepatocytes [3], the “Disappearance with stromal cell controls” value is recorded as “no disappearance”. In addition, the “Relative Proportion” value with human hepatocytes [1] amounted to 25%.
`COc1ccc2[nH]cc(CC(=O)O)c2c1` [5-MIAA, 5-methoxyindole-3-acetic acid]: the “Mean % Recovery” value in the data set with human plasma protein was 81.4%. The Mean fu in the data set on human plasma protein was 0.502. Also, the “Plasma binding (mean fraction unbound)” value in the data set with human plasma protein was ~50%. Further, the “Unbound fraction (fu), Replicate 1” value in the data set on human plasma protein is recorded as 0.499. Further, in the data set on human plasma protein, the “Unbound fraction (fu), Replicate 2” value is 0.462. Further, in the data set on human plasma protein, the “Unbound fraction (fu), Replicate 3” value stood at 0.544. Further, the “Relative LC/MS peak area” value turned out to be 98% in the data set on human hepatocytes [3] (1 μM Hepatocytes, 1 h); 100% in the data set on human hepatocytes [3] (1 μM Hepatocytes, 2 h); 99% in the data set on human hepatocytes [3] (1 μM Hepatocytes, 4 h); 95% with human hepatocytes [3] (1 μM Hepatocytes, 8 h); 99% in the data set on human hepatocytes [3] (1 μM Hepatocytes, 24 h); 88% with human hepatocytes [3] (1 μM Hepatocytes, 48 h). Moreover, the “Relative LC/MS peak area” value in the data set with human hepatocytes [3] (1 μM Hepatocytes, 72 h) is reported as 82%; in the data set with human hepatocytes [3] (1 μM Stromal cells, 4 h), 103%; with human hepatocytes [3] (1 μM Stromal cells, 8 h), 107%; with human hepatocytes [3] (1 μM Stromal cells, 24 h) it was 108%; with human hepatocytes [3] (1 μM Stromal cells, 48 h) it was 111%; in the data set with human hepatocytes [3] (1 μM Stromal cells, 72 h) it was 135%. Further, the “Relative LC/MS peak area” value in the data set with human hepatocytes [3] (10 μM Hepatocytes, 1 h) is on record as 97%; in the data set on human hepatocytes [3] (10 μM Hepatocytes, 2 h) it was 100%; with human hepatocytes [3] (10 μM Hepatocytes, 4 h), 103%; with human hepatocytes [3] (10 μM Hepatocytes, 8 h), 96%; in the data set with human hepatocytes [3] (10 μM Hepatocytes, 24 h) it was 96%; with human hepatocytes [3] (10 μM Hepatocytes, 48 h) it was 86%. The “Relative LC/MS peak area” value in the data set with human hepatocytes [3] (10 μM Hepatocytes, 72 h) is 75%; with human hepatocytes [3] (10 μM Stromal cells, 4 h), 101%; in the data set on human hepatocytes [3] (10 μM Stromal cells, 8 h), 106%; in the data set on human hepatocytes [3] (10 μM Stromal cells, 24 h), 97%; with human hepatocytes [3] (10 μM Stromal cells, 48 h), 103%; in the data set on human hepatocytes [3] (10 μM Stromal cells, 72 h), 115%. The “Remaining abundance after 72 h” value with human hepatocytes [3] (hepatocytes, 1 and 10 μM) is recorded as 75-82%. For the same compound, the Half-life in the data set with human hepatocytes [3] is recorded as 15 400 min. In addition, the “In vitro intrinsic clearance” value in the data set with human hepatocytes [3] came out at 0.15 μl/min/million cells. The “Predicted hepatic extraction ratio” value in the data set on human hepatocytes [3] is 2%. In the data set with human hepatocytes [3] (in the presence of hepatocytes), the Metabolic turnover result was “low metabolic turnover”. Moreover, in the data set on human hepatocytes [3], the “Disappearance with stromal cell controls” value is on record as “no disappearance”. In addition, the entries for the “Relative Proportion” value in the data set on human hepatocytes [1] and in the data set on human hepatocytes [1] (listed as 5-Methoxyindole acetic acid (5-MIAA)) were “about 60%” and 61%, respectively. Besides, the “DID per kg infant weight” value in data set [2] (setting [11]) is given as 0.001377 mg/kg/day. The “Total exposure of the infant (DID)” value in data set [2] (setting [11]) is recorded as 0.006886 mg/day. Besides, the “Concentration in breast milk” value in data set [2] (1 hour after last dose (6 mg + 12 mg 5-MeO-DMT)) was 13.9452 ng/mL; in data set [2] (2.5 hours after last dose), 13.2409 ng/mL; in data set [2] (8.5 hours after last dose), 0.3594 ng/mL. Moreover, the “Peak urine concentration relative to serum” value in data set [2] (2.5 hours) is “approx. 127 times”. Besides, the figures for the Urine concentration in data set [2] (2.5 hours after last dose) and in data set [2] (setting [10]) were 12 980 501 pg/ml and 12980501 pg/mL, respectively. The Breastmilk concentration in data set [2] (setting [4]) is 13945.2 pg/mL; in data set [2] (setting [5]) it was 13240.9 pg/mL; in data set [2] (setting [6]) it was 359.4 pg/mL; in data set [2] (setting [7]) it was “BLQ”; in data set [2] (setting [8]) it was “BLQ”. Moreover, the concentration at 24 h in data set [2] (female, human, breast milk, inhaled) was 0.0355 ng/mL; in data set [2] (female, human, serum, inhaled) it was 0.271 ng/mL; in data set [2] (female, human, urine, inhaled) it was 18.6 ng/mL. Further, the concentration at 2.5 h in data set [2] (female, human, serum, inhaled) was 102 ng/mL; in data set [2] (female, human, urine, inhaled), ~13000 ng/mL. For the same compound, the concentration at 120 h in data set [2] (female, human, serum, inhaled) is 0.0671 ng/mL; in data set [2] (female, human, urine, inhaled), 9.44 ng/mL. Further, the concentration at 8.5 h in data set [2] (female, human, urine, inhaled) was 292 ng/mL. Besides, the Serum concentration in data set [2] (setting [9]) is 263.092 ng/mL.
For the compound `CC(=O)CC(c1ccccc1)c1c(O)c2ccccc2oc1=O` (centres unmarked) [Warfarin, reference compound], in the data set with human plasma protein, the “Mean % Recovery” value is recorded as 78.1%; the Mean fu is listed as 0.0377; the “Unbound fraction (fu), Replicate 1” value is given as 0.0418; the “Unbound fraction (fu), Replicate 2” value was 0.0356. In addition, the “Unbound fraction (fu), Replicate 3” value with human plasma protein was determined as 0.0358.
Turning to `COc1ccc2[nH]cc(CC[N+](C)(C)[O-])c2c1` [5-MeO-DMT-N-oxide], the “Relative Proportion” value in the data set with human hepatocytes [1] stood at 1%.
